According to US11572590B2, “Methods for evaluating tumor cell spheroids using 3D microfluidic cell culture device” (Dana-Farber Cancer Institute, Inc., priority 2017, dated 2023):
Read-outs that look alike come from different tables or passages of the source.

Columns and labels:
Experiment in all cases: SelectScreen Kinase Profiling, single point inhibition and IC50 for off-target kinases
Format in all cases: biochemical
off-target kinases [1] = biological target: off-target kinases (Homo sapiens, UniProt P28482); settings: MAPK1 (ERK2), ZLYTE, ATP Km app
Sequence of off-target kinases (Homo sapiens, UniProt P28482) (P28482 whole entry): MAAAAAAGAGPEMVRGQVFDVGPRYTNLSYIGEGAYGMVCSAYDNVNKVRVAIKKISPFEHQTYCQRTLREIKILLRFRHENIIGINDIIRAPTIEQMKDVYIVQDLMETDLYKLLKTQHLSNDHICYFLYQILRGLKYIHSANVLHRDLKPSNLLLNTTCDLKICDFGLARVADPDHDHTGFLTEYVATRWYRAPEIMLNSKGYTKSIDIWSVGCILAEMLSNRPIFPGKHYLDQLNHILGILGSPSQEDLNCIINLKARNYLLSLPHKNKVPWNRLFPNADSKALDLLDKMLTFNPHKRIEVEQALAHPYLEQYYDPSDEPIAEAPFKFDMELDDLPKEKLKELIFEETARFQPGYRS

off-target kinases [2] = biological target: off-target kinases (Homo sapiens, UniProt Q9P289); settings: MST4, ZLYTE, ATP Km app
Sequence of off-target kinases (Homo sapiens, UniProt Q9P289) (Q9P289 whole entry): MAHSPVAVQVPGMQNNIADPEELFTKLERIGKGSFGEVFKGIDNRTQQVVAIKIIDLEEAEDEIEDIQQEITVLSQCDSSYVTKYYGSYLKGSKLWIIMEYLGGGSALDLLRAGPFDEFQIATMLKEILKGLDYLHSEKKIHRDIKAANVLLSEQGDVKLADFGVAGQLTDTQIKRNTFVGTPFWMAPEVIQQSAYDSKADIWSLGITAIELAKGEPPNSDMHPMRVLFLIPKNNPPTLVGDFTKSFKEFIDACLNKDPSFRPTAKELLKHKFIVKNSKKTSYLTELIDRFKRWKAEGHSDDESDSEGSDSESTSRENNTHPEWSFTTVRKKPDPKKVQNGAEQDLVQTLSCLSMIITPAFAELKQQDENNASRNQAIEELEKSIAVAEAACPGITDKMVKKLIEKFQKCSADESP

off-target kinases [3] = biological target: off-target kinases (Homo sapiens, UniProt P31749); settings: AKT1 (PKB alpha), ZLYTE, ATP Km app
Sequence of off-target kinases (Homo sapiens, UniProt P31749) (P31749 whole entry): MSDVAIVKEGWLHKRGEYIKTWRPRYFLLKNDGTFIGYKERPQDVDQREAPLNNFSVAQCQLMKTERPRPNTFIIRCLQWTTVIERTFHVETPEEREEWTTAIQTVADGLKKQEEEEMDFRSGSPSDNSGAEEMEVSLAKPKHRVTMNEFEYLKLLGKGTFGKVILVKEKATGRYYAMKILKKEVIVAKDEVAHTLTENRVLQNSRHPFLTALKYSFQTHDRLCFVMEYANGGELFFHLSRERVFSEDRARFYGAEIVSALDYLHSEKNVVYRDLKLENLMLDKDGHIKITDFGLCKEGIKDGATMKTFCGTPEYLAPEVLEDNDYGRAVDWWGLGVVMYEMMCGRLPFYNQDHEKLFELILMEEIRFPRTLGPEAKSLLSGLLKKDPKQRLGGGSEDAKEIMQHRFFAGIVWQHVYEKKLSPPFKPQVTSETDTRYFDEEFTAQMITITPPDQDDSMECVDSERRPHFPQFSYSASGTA

off-target kinases [4] = biological target: T1, off-target kinases (Homo sapiens, UniProt Q9NRA0); settings: SPHK2; Cmpd1 1000 μM; ATP 10; Adapta
T1 sequence (Q9NRA0 1-654): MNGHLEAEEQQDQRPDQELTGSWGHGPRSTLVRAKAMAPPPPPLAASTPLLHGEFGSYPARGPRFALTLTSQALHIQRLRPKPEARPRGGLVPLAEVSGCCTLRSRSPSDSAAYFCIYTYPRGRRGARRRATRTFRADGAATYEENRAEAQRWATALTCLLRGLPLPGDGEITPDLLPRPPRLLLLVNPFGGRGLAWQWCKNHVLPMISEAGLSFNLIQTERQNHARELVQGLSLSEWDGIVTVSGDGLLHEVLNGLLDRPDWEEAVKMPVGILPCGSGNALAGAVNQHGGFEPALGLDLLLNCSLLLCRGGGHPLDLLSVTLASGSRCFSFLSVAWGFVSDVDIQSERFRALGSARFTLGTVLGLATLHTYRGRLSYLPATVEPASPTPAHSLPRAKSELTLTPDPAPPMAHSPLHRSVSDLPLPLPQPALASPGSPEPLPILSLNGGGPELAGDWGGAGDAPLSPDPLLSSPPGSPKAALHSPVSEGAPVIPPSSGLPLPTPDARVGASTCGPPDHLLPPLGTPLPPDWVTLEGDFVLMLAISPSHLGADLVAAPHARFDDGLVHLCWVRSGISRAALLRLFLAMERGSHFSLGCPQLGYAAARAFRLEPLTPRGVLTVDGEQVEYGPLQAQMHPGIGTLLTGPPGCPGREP

off-target kinases [5] = biological target: off-target kinases (Homo sapiens, UniProt P36894); settings: BMPR1A (ALK3), LanthaScreen Binding
Sequence of off-target kinases (Homo sapiens, UniProt P36894) (P36894 24-532): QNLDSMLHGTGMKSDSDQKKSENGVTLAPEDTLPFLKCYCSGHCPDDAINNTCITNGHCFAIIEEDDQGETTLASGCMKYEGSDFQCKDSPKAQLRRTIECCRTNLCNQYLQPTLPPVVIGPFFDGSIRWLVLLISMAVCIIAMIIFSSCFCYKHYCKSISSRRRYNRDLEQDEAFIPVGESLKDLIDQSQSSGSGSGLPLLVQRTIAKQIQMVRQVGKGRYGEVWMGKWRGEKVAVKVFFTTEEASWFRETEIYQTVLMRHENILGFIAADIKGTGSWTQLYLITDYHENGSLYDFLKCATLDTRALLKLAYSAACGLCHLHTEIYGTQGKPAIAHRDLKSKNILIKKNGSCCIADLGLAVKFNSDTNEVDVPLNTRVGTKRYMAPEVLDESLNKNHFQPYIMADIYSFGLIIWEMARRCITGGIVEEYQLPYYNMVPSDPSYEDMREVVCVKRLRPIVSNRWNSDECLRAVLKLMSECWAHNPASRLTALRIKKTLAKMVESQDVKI

off-target kinases [6] = biological target: off-target kinases (Homo sapiens, UniProt P78527)
off-target kinases [7] = biological target: off-target kinases (Homo sapiens, UniProt P04629); settings: NTRK1 (TRKA), ZLYTE, ATP Km app
Sequence of off-target kinases (Homo sapiens, UniProt P04629) (P04629 33-796): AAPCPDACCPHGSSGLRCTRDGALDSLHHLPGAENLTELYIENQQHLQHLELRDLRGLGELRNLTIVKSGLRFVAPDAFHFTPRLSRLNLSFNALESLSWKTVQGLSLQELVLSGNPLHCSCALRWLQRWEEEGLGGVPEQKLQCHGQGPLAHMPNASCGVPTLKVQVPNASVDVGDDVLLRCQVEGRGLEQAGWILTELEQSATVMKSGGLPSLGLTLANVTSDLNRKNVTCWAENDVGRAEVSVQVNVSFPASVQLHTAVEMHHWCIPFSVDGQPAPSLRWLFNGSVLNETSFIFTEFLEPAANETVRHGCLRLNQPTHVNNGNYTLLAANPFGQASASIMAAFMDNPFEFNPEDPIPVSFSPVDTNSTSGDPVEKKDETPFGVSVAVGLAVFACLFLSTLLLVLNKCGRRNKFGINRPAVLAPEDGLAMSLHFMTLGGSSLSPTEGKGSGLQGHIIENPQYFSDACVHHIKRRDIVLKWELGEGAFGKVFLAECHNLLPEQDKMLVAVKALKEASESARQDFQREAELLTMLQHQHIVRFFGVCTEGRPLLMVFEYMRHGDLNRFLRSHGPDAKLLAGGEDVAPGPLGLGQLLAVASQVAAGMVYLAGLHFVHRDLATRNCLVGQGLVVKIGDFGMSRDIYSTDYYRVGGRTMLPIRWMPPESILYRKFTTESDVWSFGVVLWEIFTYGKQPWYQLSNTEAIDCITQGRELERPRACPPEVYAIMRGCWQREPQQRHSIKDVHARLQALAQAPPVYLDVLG

off-target kinases [8] = biological target: off-target kinases (Homo sapiens, UniProt P10721, D816V); settings: KIT D816V, LanthaScreen Binding
Sequence of off-target kinases (Homo sapiens, UniProt P10721, D816V) (P10721 26-976 D816V): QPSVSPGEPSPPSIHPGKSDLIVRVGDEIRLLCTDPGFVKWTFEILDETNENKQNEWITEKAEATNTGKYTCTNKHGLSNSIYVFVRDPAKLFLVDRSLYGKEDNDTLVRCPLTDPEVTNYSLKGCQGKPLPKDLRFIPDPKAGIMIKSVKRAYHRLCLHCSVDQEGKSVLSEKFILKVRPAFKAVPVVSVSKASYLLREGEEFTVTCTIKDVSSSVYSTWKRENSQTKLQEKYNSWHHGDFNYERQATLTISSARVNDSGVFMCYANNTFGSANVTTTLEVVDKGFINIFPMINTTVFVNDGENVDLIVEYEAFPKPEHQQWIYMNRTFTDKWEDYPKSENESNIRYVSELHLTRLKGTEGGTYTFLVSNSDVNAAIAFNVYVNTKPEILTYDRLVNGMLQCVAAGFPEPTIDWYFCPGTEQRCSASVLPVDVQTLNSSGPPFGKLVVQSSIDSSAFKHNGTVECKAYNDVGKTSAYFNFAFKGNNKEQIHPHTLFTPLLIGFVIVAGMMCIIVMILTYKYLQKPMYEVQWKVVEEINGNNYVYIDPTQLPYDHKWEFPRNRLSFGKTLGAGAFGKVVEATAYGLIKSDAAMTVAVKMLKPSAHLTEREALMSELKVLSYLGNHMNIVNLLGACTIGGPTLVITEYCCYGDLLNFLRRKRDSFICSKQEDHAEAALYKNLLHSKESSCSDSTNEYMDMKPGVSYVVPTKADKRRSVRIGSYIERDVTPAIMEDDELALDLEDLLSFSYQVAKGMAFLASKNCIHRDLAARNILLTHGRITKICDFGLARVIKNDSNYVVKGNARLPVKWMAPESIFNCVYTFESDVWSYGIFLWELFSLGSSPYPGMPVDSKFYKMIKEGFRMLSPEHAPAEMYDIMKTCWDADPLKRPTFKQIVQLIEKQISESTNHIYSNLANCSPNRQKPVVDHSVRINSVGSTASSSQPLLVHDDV

off-target kinases [9] = biological target: off-target kinases (Homo sapiens, UniProt O96013); settings: PAK4, ATP Km app, ZLYTE
off-target kinases [10] = biological target: off-target kinases (Homo sapiens, UniProt P27037); settings: ACVR2A, LanthaScreen Binding
Sequence of off-target kinases (Homo sapiens, UniProt P27037) (P27037 20-513): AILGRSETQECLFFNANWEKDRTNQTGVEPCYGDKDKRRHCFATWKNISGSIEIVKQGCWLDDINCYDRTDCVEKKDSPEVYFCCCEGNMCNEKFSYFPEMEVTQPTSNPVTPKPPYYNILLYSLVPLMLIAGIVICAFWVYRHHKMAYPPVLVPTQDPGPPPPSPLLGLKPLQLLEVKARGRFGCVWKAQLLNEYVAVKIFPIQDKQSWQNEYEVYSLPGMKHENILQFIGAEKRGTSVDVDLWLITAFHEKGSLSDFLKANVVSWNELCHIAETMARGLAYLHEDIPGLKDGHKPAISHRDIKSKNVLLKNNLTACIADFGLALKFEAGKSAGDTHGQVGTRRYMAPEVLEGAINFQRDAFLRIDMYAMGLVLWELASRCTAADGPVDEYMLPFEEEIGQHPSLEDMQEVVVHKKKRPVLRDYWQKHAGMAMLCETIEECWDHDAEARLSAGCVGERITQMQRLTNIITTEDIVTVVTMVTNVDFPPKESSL

off-target kinases [11] = biological target: off-target kinases (Homo sapiens, UniProt P22607); settings: FGFR3, ZLYTE, ATP Km app
Sequence of off-target kinases (Homo sapiens, UniProt P22607) (P22607 23-806): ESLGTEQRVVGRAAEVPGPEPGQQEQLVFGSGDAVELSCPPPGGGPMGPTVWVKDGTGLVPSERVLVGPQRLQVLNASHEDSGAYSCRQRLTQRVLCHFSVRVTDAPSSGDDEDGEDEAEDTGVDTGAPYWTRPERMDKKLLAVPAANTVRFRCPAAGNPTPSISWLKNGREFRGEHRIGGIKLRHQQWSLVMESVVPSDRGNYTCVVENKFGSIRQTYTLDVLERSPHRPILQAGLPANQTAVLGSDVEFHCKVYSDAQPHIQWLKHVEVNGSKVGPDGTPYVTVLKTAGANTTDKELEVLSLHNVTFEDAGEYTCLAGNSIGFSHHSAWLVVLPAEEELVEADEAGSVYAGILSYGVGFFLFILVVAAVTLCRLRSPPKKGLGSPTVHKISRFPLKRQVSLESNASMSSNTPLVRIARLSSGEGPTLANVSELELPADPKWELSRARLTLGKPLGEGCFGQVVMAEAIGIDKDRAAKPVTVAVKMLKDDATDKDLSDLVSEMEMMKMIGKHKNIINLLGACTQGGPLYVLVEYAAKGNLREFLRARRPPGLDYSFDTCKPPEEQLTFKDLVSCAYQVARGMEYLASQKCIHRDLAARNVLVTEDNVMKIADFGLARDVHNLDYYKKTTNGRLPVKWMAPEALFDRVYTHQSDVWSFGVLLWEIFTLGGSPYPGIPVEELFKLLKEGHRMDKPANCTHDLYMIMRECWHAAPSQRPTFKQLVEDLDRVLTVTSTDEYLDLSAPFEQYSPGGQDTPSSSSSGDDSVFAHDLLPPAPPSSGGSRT

N#Cc1cc(-c2ncnc(Nc3ccc(N4CCN(C5COC5)CC4)cc3)n2)ccc1OC1CCOCC1 [Compound 1, 5-(4-((4-(4-(oxetan-3-yl)piperazin-1-yl)phenyl)amino)-1,3,5-triazin-2-yl)-2-((tetrahydro-2H-pyran-4-yl)oxy)benzonitrile]
inhibition (off-target kinases [1]; read-out: % Inhibition 1): 6% | inhibition (off-target kinases [1]; read-out: % Inhibition 2): 6% | inhibition (off-target kinases [1]; read-out: % Inhibition Avg): 6% | inhibition (off-target kinases [2]; read-out: % Inhibition 1): 2% | inhibition (off-target kinases [2]; read-out: % Inhibition 2): 3% | inhibition (off-target kinases [2]; read-out: % Inhibition Avg): 2% | inhibition (off-target kinases [3]; read-out: % Inhibition 1): 1% | inhibition (off-target kinases [3]; read-out: % Inhibition 2): 3% | inhibition (off-target kinases [3]; read-out: % Inhibition Avg): 2% | % Inhibition 1 (off-target kinases [4]): −16% | % Inhibition 2 (off-target kinases [4]): −2% | % Inhibition Avg (off-target kinases [4]): −9% | inhibition (off-target kinases [5]; read-out: % Inhibition 1): 51% | inhibition (off-target kinases [5]; read-out: % Inhibition 2): 51% | inhibition (off-target kinases [5]; read-out: % Inhibition Avg): 51% | inhibition (off-target kinases [6]; DNA-PK, ZLYTE, ATP Km app, read-out: % Inhibition 1): 2% | inhibition (off-target kinases [6]; DNA-PK, ZLYTE, ATP Km app, read-out: % Inhibition 2): -4% | inhibition (off-target kinases [6]; read-out: % Inhibition Avg): -1% | inhibition (off-target kinases [7]; read-out: % Inhibition 1): 16% | inhibition (off-target kinases [7]; read-out: % Inhibition 2): 20% | inhibition (off-target kinases [7]; read-out: % Inhibition Avg): 18% | inhibition (off-target kinases [8]; read-out: % Inhibition 1): 83% | inhibition (off-target kinases [8]; read-out: % Inhibition 2): 83% | inhibition (off-target kinases [8]; read-out: % Inhibition Avg): 83% | inhibition (off-target kinases [9]; read-out: % Inhibition 1): 91% | inhibition (off-target kinases [9]; read-out: % Inhibition 2): 90% | inhibition (off-target kinases [9]; read-out: % Inhibition Avg): 90% | inhibition (off-target kinases [10]; read-out: % Inhibition 1): 23% | inhibition (off-target kinases [10]; read-out: % Inhibition 2): 21% | inhibition (off-target kinases [10]; read-out: % Inhibition Avg): 22% | inhibition (off-target kinases [11]; read-out: % Inhibition 1): 6% | inhibition (off-target kinases [11]; read-out: % Inhibition 2): 4% | inhibition (off-target kinases [11]; read-out: % Inhibition Avg): 5%
